Literature values in US20200170950A1, “COMPOSITIONS COMPRISING A CANNABINOID OR A CANNABIS-DERIVED COMPOUND, METHODS OF MAKING AND USE” (priority 2018, published 2020).

Experiments:
CB2 receptor = CB2 receptor (Homo sapiens, UniProt P34972)
CB1 receptor = CB1 receptor (Homo sapiens, UniProt P21554)
5-HT1A receptor = target: T1, 5-HT1A receptor (Homo sapiens, UniProt P08908)
T1 sequence (P08908 1-422): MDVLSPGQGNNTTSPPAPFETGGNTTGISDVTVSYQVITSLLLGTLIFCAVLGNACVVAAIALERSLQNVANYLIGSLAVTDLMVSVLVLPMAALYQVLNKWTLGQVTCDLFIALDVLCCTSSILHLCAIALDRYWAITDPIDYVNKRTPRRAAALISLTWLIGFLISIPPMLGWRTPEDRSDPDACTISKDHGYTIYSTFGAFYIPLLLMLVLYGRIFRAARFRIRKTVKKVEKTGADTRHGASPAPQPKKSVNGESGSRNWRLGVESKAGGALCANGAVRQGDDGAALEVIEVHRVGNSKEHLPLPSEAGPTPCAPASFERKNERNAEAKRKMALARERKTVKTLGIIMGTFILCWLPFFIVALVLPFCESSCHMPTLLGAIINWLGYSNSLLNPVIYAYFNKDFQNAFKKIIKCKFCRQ

CB1 receptor, sequence (P21554 whole entry): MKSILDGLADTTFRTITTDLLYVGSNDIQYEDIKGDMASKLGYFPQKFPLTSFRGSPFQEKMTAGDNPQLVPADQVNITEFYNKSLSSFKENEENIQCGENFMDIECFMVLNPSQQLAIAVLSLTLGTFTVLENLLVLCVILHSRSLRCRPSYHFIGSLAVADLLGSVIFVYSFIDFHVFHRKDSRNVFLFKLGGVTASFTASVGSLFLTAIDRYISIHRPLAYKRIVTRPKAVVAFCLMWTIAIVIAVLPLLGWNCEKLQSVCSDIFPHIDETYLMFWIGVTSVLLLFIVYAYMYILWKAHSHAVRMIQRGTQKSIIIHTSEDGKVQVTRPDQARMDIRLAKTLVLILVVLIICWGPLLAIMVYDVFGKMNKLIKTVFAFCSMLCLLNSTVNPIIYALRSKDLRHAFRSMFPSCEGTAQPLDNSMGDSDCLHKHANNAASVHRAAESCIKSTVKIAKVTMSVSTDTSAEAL
CB2 receptor, sequence (P34972 whole entry): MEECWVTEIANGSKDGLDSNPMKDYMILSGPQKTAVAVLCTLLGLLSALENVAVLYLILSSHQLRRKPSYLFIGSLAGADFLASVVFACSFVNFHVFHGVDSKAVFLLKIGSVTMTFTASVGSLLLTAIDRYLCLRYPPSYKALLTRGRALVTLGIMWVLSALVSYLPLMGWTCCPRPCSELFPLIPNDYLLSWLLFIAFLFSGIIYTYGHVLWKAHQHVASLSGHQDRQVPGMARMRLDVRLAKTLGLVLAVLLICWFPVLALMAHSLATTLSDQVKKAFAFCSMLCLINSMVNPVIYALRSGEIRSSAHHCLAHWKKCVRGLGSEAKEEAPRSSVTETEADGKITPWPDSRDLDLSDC

| Compound | activity/affinity at CB2 receptor (CB2 receptor) | activity/affinity at CB1 receptor (CB1 receptor) | affinity, 5-HT1A receptor antagonist (5-HT1A receptor) | affinity, α2-adrenergic receptor agonist (α2-adrenergic receptor) |
| --- | --- | --- | --- | --- |
| CCCCCc1cc(O)c(C/C=C(\C)CCC=C(C)C)c(O)c1 [CBG, Cannabigerol] | antagonist | low affinity | moderate affinity | high affinity |
| CCCCCc1cc(O)c2c(c1)OC(C)(C)c1ccc(C)cc1-2 [CBN, Cannabinol] | higher affinity | partial agonist | – | – |
